This is an account of results in patent publication US11958853B1, “6-substituted aminopyrazino[2′,1′:2,3]imidazo[4,5-c][1,7]naphthyridine compounds as CK2 inhibitors” (KING FAISAL UNIVERSITY, priority 2023, dated 2024).

Assay [1] relates to HCT116 (colon) cancer cells. As to the kind of experiment: In vitro cytotoxic activity MTT assay, HCT116. Format: cell-based. The conditions noted are these: Homo sapiens, HCT-116, exposed for 96 hours, 50% inhibition of cell proliferation, read-out: Cytotoxicity IC50, HCT116 (colon). How it is done:
(§1) Compounds 1-12 were screened for their in vitro cytotoxic activity utilizing a 3-(4,5-dimethyl-thiazol-2-yl)-2,5-diphenyltetrazolium bromide (MTT) assay against selected cancer human cell lines consisting of PC3 (prostate), HCT116 (colon), A375 (melanoma), H1299 (lung), MIAPaCa-2 (pancreas), HL60 (leukemia), MCF7 (breast), MDA-MB-231 (breast) (T. Mosmann, J. Immunol. Meth., 1983, 65, 55-63). The cells were cultured at 37° C. in RMPI1640 medium supplemented with 10% fetal bovine serum, 50 IU/mL penicillin, and 50 μg/mL streptomycin in a 5% CO2 incubator. All cells were sub-cultured 3 times/week by trypsinisation. Viable cells were seeded and allowed to adhere for 12 h before a test drug was added in 96-well plates at an initial density of 1.0×10^5 cells/mL. Tumour cell lines were separately exposed to various concentrations of the tested compounds followed by incubation at a temperature of 37° C. during 96 h inside a medium of fresh RMPI 1640. Cells were subsequently incubated at 37° C. using MTT at 0.5 mg/mL during 4 h. After removal of supernatant, formazan crystals were dissolved in isopropanol and the optical density was measured at 570 nm. CX-4945 was used as a positive control.
In general terms: Formazan colour is commonly taken as a measure of viable cells.

The subject of assay [2] is MIAPaCa-2 (pancreas) cancer cells. As to the kind of experiment: In vitro cytotoxic activity MTT assay, MIAPaCa-2. Format: cell-based. The conditions noted are these: Homo sapiens, MIA PaCa-2; MIAPaCa-2 cells, exposed for 96 hours, 50% inhibition of cell proliferation; read-out: Cytotoxicity IC50, MIAPaCa-2 (pancreas). How it is done: as §1
Assay [3] has as its system A375 (melanoma) cancer cells. Nature of the assay: In vitro cytotoxic activity MTT assay, A375. Format: cell-based. The conditions noted are these: Homo sapiens, A-375, exposed for 96 hours, 50% inhibition of cell proliferation, read-out: Cytotoxicity IC50, A375 (melanoma). How it is done:
as §1

For assay [4], the system named is HL60 (leukemia) cancer cells. As to the kind of experiment: In vitro cytotoxic activity MTT assay, HL60. In kind it is cell-based. The conditions noted are these: Homo sapiens, HL-60, exposed for 96 hours, 50% inhibition of cell proliferation, read-out: Cytotoxicity IC50, HL60 (leukemia). How it is done: as §1
For assay [5], the system named is MDA-MB-231 (breast) cancer cells. As to the kind of experiment: In vitro cytotoxic activity MTT assay, MDA-MB-231. Format: cell-based. The conditions noted are these: Homo sapiens; MDA-MB-231 cells, exposed for 96 hours, 50% inhibition of cell proliferation; read-out: Cytotoxicity IC50, MDA-MB-231 (breast). How it is done: as §1
In assay [6] the test system is H1299 (lung) cancer cells. Nature of the assay: In vitro cytotoxic activity MTT assay, H1299. The conditions noted are these: Homo sapiens, NCI-H1299, exposed for 96 hours, 50% inhibition of cell proliferation, read-out: Cytotoxicity IC50, H1299 (lung). Format: cell-based. How it is done:
as §1

The test system of assay [7] is MCF7 (breast) cancer cells. As to the kind of experiment: In vitro cytotoxic activity MTT assay, MCF7. Format: cell-based. The conditions noted are these: Homo sapiens, exposed for 96 hours, 50% inhibition of cell proliferation, read-out: Cytotoxicity IC50, MCF7 (breast). How it is done:
as §1

The subject of assay [8] is PC3 (prostate) cancer cells. As to the kind of experiment: In vitro cytotoxic activity MTT assay, PC3. Format: cell-based. The conditions noted are these: Homo sapiens, PC-3, exposed for 96 hours, 50% inhibition of cell proliferation, read-out: Cytotoxicity IC50, PC3 (prostate). How it is done:
as §1

For assay [9], the target named is T1, recombinant human CK2 (RRββ-holoenzyme) (Homo sapiens, UniProt P68400).
T1 construct: purchased Millipore
As to the kind of experiment: CK2 Kinase Assay (33P-ATP, filter plate). In kind it is biochemical. The conditions noted are these: final ATP concentration 15 μM, 10 min at 30° C, eight concentrations; read-out: protein kinase CK2 IC50. How it is done:
CK2 Kinase Assay was conducted using the protocol as described in Pierre F. et al; J. Med. Chem. 2011, 54, 635-654. The tested compounds in aqueous solution were added at a volume of 10 μL to a reaction mixture comprising 10 μL of assay dilution buffer (ADB; 20 mM MOPS, pH 7.2, 25 mM β-glycerol phosphate, 5 mM EGTA, 1 mM sodium orthovanadate, and 1 mM dithiothreitol), 10 μL of substrate peptide (RRRDDDSDDD, dissolved in ADB at a concentration of 1 mM), 10 μL of recombinant human CK2 (RRββ-holoenzyme, 25 ng dissolved in ADB; Millipore). Reactions were initiated by the addition of 10 μL of ATP solution (90% 75 mM MgCl2, 75 μM ATP (final ATP concentration: 15 μM) dissolved in ADB; 10% [γ-33P] ATP (stock 1 mCi/100 μL; 3000 Ci/mmol (Perkin-Elmer) and maintained for 10 min at 30° C. The reactions were quenched with 100 μL of 0.75% phosphoric acid and then transferred to and filtered through a phosphor cellulose filter plate (Millipore). After washing each well five times with 0.75% phosphoric acid, the plate was dried under vacuum for 5 min and, following the addition of 15 μL of scintillation fluid to each well, the residual radioactivity was measured using a Wallac […] counter. The IC50 values were derived from eight concentrations of test inhibitors.

T1 sequence (P68400 whole entry): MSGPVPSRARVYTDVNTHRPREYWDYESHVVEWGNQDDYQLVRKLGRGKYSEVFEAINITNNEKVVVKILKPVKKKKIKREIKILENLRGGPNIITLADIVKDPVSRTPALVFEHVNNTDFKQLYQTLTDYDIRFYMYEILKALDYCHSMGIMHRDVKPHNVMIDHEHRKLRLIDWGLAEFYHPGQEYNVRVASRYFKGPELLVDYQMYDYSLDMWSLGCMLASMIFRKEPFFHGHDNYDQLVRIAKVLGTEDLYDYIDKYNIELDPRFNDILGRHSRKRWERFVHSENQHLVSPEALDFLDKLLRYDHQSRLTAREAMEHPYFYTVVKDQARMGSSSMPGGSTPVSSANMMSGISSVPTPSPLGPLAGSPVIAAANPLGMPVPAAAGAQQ
T1 sequence (P67870 whole entry partner): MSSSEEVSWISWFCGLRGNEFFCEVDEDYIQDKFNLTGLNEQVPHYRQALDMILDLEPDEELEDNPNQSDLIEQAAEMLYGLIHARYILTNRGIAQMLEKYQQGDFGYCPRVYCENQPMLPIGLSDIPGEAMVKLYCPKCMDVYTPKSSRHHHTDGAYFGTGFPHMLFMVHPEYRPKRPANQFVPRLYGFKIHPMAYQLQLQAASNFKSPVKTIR

What is called IC50 is the concentration at which inhibition is half-maximal. `Clc1cccc(Nc2nc3cnccc3c3nc4cnccn4c23)c1` [Compound 1, N-(3-chlorophenyl)pyrazino[2′,1′:2,3]imidazo[4,5-c][1,7]naphthyridin-6-amine]: the IC50 in assay [1] turned out to be 1.4 µM; in assay [2] it was 1.2 µM; in assay [3], 3.1 µM; in assay [4] it was 3.3 µM; in [5] it was 4.8 µM; in assay [6], 1.9 µM. Also, the IC50 in assay [7] is 5.6 µM; in assay [8] it was 1.1 µM; in assay [9] it was 0.018 µM.
